One experiment deals with T1, PDE II (Bos taurus, UniProt P14099).
T1 construct: isolated either from porcine or bovine heart myocardium; from tissue; host or cells: porcine or bovine heart myocardium
T1 sequence (P14099 1-921): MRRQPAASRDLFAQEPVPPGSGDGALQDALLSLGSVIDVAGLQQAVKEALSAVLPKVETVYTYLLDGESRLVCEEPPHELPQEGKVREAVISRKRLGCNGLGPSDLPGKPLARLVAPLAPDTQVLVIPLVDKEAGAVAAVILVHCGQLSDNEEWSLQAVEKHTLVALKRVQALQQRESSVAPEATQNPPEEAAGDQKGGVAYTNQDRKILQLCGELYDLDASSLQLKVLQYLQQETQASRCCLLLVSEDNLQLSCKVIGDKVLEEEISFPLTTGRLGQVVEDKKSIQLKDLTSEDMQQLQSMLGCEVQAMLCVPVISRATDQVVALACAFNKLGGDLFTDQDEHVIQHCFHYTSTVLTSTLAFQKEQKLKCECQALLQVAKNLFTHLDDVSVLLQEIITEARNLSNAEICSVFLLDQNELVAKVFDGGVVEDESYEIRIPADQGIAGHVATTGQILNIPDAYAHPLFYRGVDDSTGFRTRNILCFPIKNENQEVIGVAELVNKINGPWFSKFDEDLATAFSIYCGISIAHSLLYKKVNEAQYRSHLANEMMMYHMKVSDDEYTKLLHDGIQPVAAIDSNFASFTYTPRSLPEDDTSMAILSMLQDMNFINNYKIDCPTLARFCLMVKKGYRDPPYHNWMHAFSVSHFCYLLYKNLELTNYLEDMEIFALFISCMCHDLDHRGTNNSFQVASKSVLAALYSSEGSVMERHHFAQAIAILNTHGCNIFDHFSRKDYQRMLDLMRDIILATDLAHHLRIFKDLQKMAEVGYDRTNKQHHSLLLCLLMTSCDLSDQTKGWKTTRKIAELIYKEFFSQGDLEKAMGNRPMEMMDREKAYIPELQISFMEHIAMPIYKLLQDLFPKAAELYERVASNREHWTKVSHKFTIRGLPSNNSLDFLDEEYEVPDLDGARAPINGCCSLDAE
The experiment can be described thus: Inhibition of the phosphodiesterases in vitro: cGMP-stimulated PDE II. The format is biochemical, porcine or bovine. The following applies: [3H]cAMP substrate, 10^-6 mol/l cGMP added; concentration at which the reaction rate is reduced by 50%. The procedure:
(§1) The cGMP-stimulated PDE II, the cGMP-inhibited PDE III and the cAMP-specific PDE IV were isolated either from porcine or bovine heart myocardium. The Ca^2+-calmodulin-stimulated PDE I was isolated from porcine aorta, porcine brain or, preferably, from bovine aorta. The cGMP-specific PDE V was obtained from porcine small intestine, porcine aorta, human platelets and, preferably, from bovine aorta. Purification was carried out by anion exchange chromatography over MonoQ® Pharmacia, essentially following the method of M. Hoey and Miles D. Houslay, Biochemical Pharmacology, Vol. 40, 193–202(1990) and C. Lugman et al., Biochemical Pharmacology, Vol. 35, 1743–1751(1986).
(§2) The enzyme activity is determined using a test mixture of 100 ml in 20 mM tris/HCI-buffer pH 7.5 containing 5 mM MgCl2, 0.1 mg/ml of bovine serum albumin and either 800Bq[^3H]cAMP or [^3H]cGMP. The final concentration of the nucleotides in question is 10^−6 mol/l. The reaction is initiated by addition of the enzyme and the amount of enzyme is such that during the incubation time of 30 min, approximately 50% of the substrate are converted. To test the cGMP-stimulated PDE II, [^3H]cAMP is used as substrate and 10^−6 mol/l of non-labelled cGMP are added to the mnixture. To test the Ca^2+-calmodulin-dependent PDE I, 1 mM of CaCl2 and […] are added to the reaction mixture. The reaction is quenched by addition of […] of acetonitrile containing 1 mM cAMP and 1 mM AMP. 100 ml of the reaction mixture are separated by HPLC, and the cleavage products are determined quantitatively on-line using a continuous scintillation counter. The substance concentration measured is the concentration at which the reaction rate is reduced by 50%. Additionally, the “phosphodiesterase [^3H] cAMP-SPA enzyme assay” and the “phosphodiesterase [^3H] cGMP-SPA enzyme assay” from Amersham Life Science were used for testing. The test was carried out according to the test protocol of the manufacturer. To determine the activity of PDE II, the [^3H]cAMP SPA assay was used, and 10^−6M cGMP were added to the reaction mixture to activate the enzyme. To measure PDE I, 10^−7M calmodulin and 1 mM CaCl2 were added to the reaction mixture. PDE V was measured using the [^3H]cGMP SPA assay.

Another experiment has as its system PDE I. The experiment can be described thus: Inhibition of the phosphodiesterases in vitro: Ca2+-calmodulin-stimulated PDE I. Type of experiment: biochemical, porcine or, preferably, bovine. The following applies: concentration at which the reaction rate is reduced by 50%; CaCl2 and calmodulin added. The method, then:
as §1, §2

The next experiment has as its target T2, PDE V (Bos taurus, UniProt Q28156).
T2 construct: Purification was carried out by anion exchange chromatography over MonoQ; from tissue; host or cells: porcine small intestine, porcine aorta, human platelets or, preferably, bovine aorta
As to the kind of experiment: Inhibition of the phosphodiesterases in vitro: cGMP-specific PDE V. The format is biochemical, porcine, human or, preferably, bovine. To be noted: [3H]cGMP substrate; concentration at which the reaction rate is reduced by 50%. The method, then:
The cGMP-stimulated PDE II, the cGMP-inhibited PDE III and the cAMP-specific PDE IV were isolated either from porcine or bovine heart myocardium. The Ca^2+-calmodulin-stimulated PDE I was isolated from porcine aorta, porcine brain or, preferably, from bovine aorta. The cGMP-specific PDE V was obtained from porcine small intestine, porcine aorta, human platelets and, preferably, from bovine aorta.
as §2

The values below come from patent publication US7122540B2, “2-Phenyl substituted imidazotriazinones as phosphodiesterase inhibitors” (Bayer HealthCare AG, priority 1997, dated 2006).

As usually defined, the pIC50 is −log10 of the IC50, conventionally taken in molar units. Read a low pIC50 as a large IC50.

pIC50: −log10 of the molar value. A value given as a limit tells only on which side of the number the result lay.

As for `CCCc1nc(C)c2c(=O)[nH]c(-c3cc(S(=O)(=O)N4CCN(CC)CC4)ccc3OCC)nn12` [Example 19, 2-[2-Ethoxy-5-(4-ethyl-piperazine-1-sulphonyl)-phenyl]-5-methyl-7-propyl-3H-imidazo[5,1-f][1,2,4]triazin-4-one], the negative-log IC50 (pIC50) at PDE II was below 6.00.

As for `CCCc1nc(C)c2c(=O)[nH]c(-c3cc(S(=O)(=O)N(CCC)CCO)ccc3OCC)nn12` [Example 275], the negative logarithm of the IC50 (pIC50) in the experiment with PDE I was 7.30; at PDE II it was below 6.00; against PDE V it was 8.52.

In the case of `CCCc1nc(C)c2c(=O)[nH]c(-c3cc(S(=O)(=O)N(CC)CC)ccc3OCC)nn12` [Example 32, N,N-Diethyl-4-ethoxy-3-(5-methyl-4-oxo-7-propyl-3,4-dihydro-imidazo[5,1-f][1,2,4]triazin-2-yl)benzenesulphonamide], the pIC50 in the experiment on PDE I was 7.00; against PDE II, below 6.00; on PDE V it was 8.40.

In the case of `CCCc1nc(C)c2c(=O)[nH]c(-c3cc(S(=O)(=O)N4CCOCC4)ccc3OCC)nn12` [Example 260], the values for the pIC50 in the experiment on PDE I, against PDE II and against PDE V were 6.52, below 6.00 and 8.00, respectively.

Regarding `CCCc1nc(C)c2c(=O)[nH]c(-c3cc(S(=O)(=O)N4CCN(C)CC4)ccc3OCC)nn12` [Example 16, 2-[2-Ethoxy-5-(4-methyl-piperazine-1-sulphonyl)-phenyl]-5-methyl-7-propyl-3H-imidazo[5,1-f][1,2,4]triazin-4-one], the negative-log IC50 (pIC50) in the experiment with PDE I is 6.52; at PDE II, below 6.00; against PDE V, 8.70.

Consider `CCCc1nc(C)c2c(=O)[nH]c(-c3cc(S(=O)(=O)N4CCN(CCO)CC4)ccc3OCC)nn12` [Example 27, 2-{2-Ethoxy-5-[4-(2-hydroxy-ethyl)-piperazine-1-sulphonyl]-phenyl}-5-methyl-7-propyl-3H-imidazo[5,1-f][1,2,4]triazin-4-one], for which the pIC50 in the experiment on PDE I was 6.70; at PDE II, below 6.00; at PDE V it was 8.52.

For the compound `CCCc1nc(C)c2c(=O)[nH]c(-c3cc(S(=O)(=O)N4CCC(O)CC4)ccc3OCC)nn12` [Example 26, 2-[2-Ethoxy-5-(4-hydroxy-piperidine-1-sulphonyl)-phenyl]-5-methyl-7-propyl-3H-imidazo[5,1-f][1,2,4]triazin-4-one], the pIC50 in the experiment with PDE I was 7.00; against PDE II, below 6.00; at PDE V, 9.00.
